3 compounds from ChEMBL document CHEMBL1131629, “4-Benzylamino-1-chloro-6-substituted phthalazines: synthesis and inhibitory activity toward phosphodiesterase 5” (J Med Chem, 1998) can be followed below.

For this assay, the species on record is Sus scrofa. In words: Vasorelaxation effect in porcine coronary arteries precontracted with PGF2-alpha. The class given is functional.
By EC50 is commonly meant the concentration giving half of the maximal effect. Read a low EC50 as a more potent agent. Regarding `COc1ccc(CNc2nnc(Cl)c3ccc(C#N)cc23)cc1Cl`, the EC50 is 150 nM.

On to `COc1ccc(CNc2nnc(Cl)c3ccc([N+](=O)[O-])cc23)cc1Cl`, for which the EC50 amounted to 160 nM.

Regarding `O=C(O)C1CCN(c2nc(NCc3ccc4c(c3)OCO4)c3cc(Cl)ccc3n2)CC1`, the concentration for a half-maximal effect (EC50) stood at 980 nM.
